Legend:
[1] = system: Pharbitis purpurea; test: greenhouse experiment, post-emergence treatment; assay type: in vivo
Text: (§1) The seeds of the test plants were sown separately for each species. For the post-emergence treatment, the test plants were first grown to a height of from 3 to 15 cm, depending on the plant habit, and only then treated with the active compounds which had been suspended or emulsified in water. The test plants were for this purpose either sown directly and grown in the same containers, or they were first grown separately as seedlings and transplanted into the test containers a few days prior to treatment. The application rate for the post-emergence treatment was 0.5 or 1.0 kg of a.s. (active substance)/ha. Depending on the species, the plants were kept at 10-25° C. or 20-35° C. The test period extended over 2 to 4 weeks. During this time, the plants were tended, and their response to the individual treatments was evaluated. Evaluation was carried out using a scale from 0 to 100. 100 means no emergence of the plants, or complete destruction of at least the above-ground parts, and 0 means no damage, or normal course of growth. The plants used in the greenhouse experiments were of the following species: [table]

[2] = system: Setaria faberii; test: greenhouse experiment, pre-emergence treatment; assay type: in vivo
Text: (§2) The seeds of the test plants were sown separately for each species. For the pre-emergence treatment, directly after sowing the active compounds, which had been suspended or emulsified in water, were applied by means of finely distributing nozzles. The containers were irrigated gently to promote germination and growth and subsequently covered with transparent plastic hoods until the plant had rooted. This cover caused uniform germination of the test plants, unless this was adversely affected by reactive compounds. The application rate for a pre-emergence treatment was 0.5 or 1.0 kg of a.s. (active substance)/ha. Depending on the species, the plants were kept at 10-25° C. or 20-35° C. The test period extended over 2 to 4 weeks. During this time, the plants were tended, and their response to the individual treatments was evaluated. Evaluation was carried out using a scale from 0 to 100. 100 means no emergence of the plants, or complete destruction of at least the above-ground parts, and 0 means no damage, or normal course of growth. The plants used in the greenhouse experiments were of the following species: [table]

[3] = system: Digitaria sanguinalis; test: greenhouse experiment, pre-emergence treatment; assay type: in vivo
Text: as §2

[4] = system: Amaranthus retroflexus; test: greenhouse experiment, pre-emergence treatment; assay type: in vivo; details: 1.0 kg/ha
Text: as §2

[5] = system: Setaria faberii; test: greenhouse experiment, post-emergence treatment; assay type: in vivo; details: 1.0 kg/ha
Text: as §1

melting point [°C]	Structure (SMILES)	post-emergence activity against Pharbitis purpurea ([1]; 1.0 kg/ha)	effect on the harmful plant Setaria faberii ([2]; 1.0 kg/ha)	also measured
115	CCC(CC)/C(N)=C(\C#N)C(=O)SC(C)C [Example 7.3]	very good		
154	CCC(CC)/C(N)=C(\C#N)C(=O)OC1CCCCC1 [Example 4.12]			
	CCC(CC)/C(N)=C(\C#N)C(=O)OCC(C)(C)C [Example 4.6]	very good	very good	
146	CCC(CC)/C(N)=C(\C#N)C(=O)NC [Example 6.2]			
	CCC(CC)/C(N)=C(\C#N)C(=O)OCCCCl [Example 4.29]	very good	good	
	C=CC(C)OC(=O)/C(C#N)=C(\N)C(CC)CC (stereo not drawn) [Example 4.16]		very good	effect on the harmful plant Digitaria sanguinalis ([3]; 1.0 kg/ha): very good
150	CCC(CC)/C(N)=C(\C#N)C(=O)OC(C)(C)C [Example 4.4]	very good	very good	
	CCC(CC)/C(N)=C(\C#N)C(=O)OC1COC1 [Example 4.14, 3-Oxetanyl (2Z)-3-amino-2-cyano-4-ethyl-2-hexenoat]		very good	
	CCC(CC)/C(N)=C(\C#N)C(=O)OCC(C)C [Example 4.5]	very good	very good	effect on the harmful plant Digitaria sanguinalis ([3]; 1.0 kg/ha): very good
132	CCC(CC)/C(N)=C(\C#N)C(=O)N(C)C [Example 6.21]			
124	CCNC(=O)/C(C#N)=C(\N)C(CC)CC [Example 6.29]			
104 to 106	CCNC(=O)/C(C#N)=C(\N)C(CC)CC [Example 6.3]	very good	very good	
	CCC(CC)/C(N)=C(\C#N)C(=O)OC(C)C(C)C (stereo not drawn) [Example 4.7]	good	good	
125	CCC(CC)/C(N)=C(\C#N)C(N)=O [Example 6.1]			
	C#CCC(CC)/C(N)=C(\C#N)C(=O)OC(C)C (stereo not drawn) [Example 5.10]		very good	
180	CCC(CC)/C(N)=C(\C#N)C(=O)OC1CCCO1 (stereo not drawn) [Example 4.43]			
	C#CC(C)OC(=O)/C(C#N)=C(\N)C(CC)CC (stereo not drawn) [Example 4.20]	very good	very good	effect on the harmful plant Digitaria sanguinalis ([3]; 1.0 kg/ha): very good
115	CCC(CC)/C(N)=C(\C#N)C(=O)OCC(F)(F)F [Example 4.25]		very good	

melting point [°C]	Structure (SMILES)	post-emergence activity against Pharbitis purpurea ([1]; 1.0 kg/ha)	effect on the harmful plant Setaria faberii ([2]; 1.0 kg/ha)	also measured
	CCC(CC)/C(N)=C(\C#N)C(=O)OC(C)C#N (stereo not drawn) [Example 4.35]		good	
	CCC(CC)/C(N)=C(\C#N)C(=O)OCCC(F)(F)F [Example 4.22]			effect on the harmful plant Digitaria sanguinalis ([3]; 0.5 kg/ha): very good; effect on the harmful plant Setaria faberii ([2]; 0.5 kg/ha): very good
	CCC(CC)/C(N)=C(\C#N)C(=O)OCCCl [Example 4.23]	very good	very good	
	CCCC(CCC)/C(N)=C(\C#N)C(=O)OC(C)C [Example 5.6]	very good		
	C=CCC(CC)/C(N)=C(\C#N)C(=O)OC(C)C (stereo not drawn) [Example 5.7]	very good	very good	effect on the harmful plant Digitaria sanguinalis ([3]; 1.0 kg/ha): very good
	CCC(COC)/C(N)=C(\C#N)C(=O)OC(C)C (stereo not drawn) [Example 5.2]	very good	very good	
	CCC(CC)/C(N)=C(\C#N)C(=O)OC(C)C [Example 4.1, Isopropyl (2Z)-3-amino-2-cyano-4-ethyl-2-hexenoate]	very good	very good	effect on the harmful plant Amaranthus retroflexus [4]: very good; post-emergence activity against Setaria faberii [5]: very good
140	CCC(CC)/C(N)=C(\C#N)C(=O)OC1CCCC1 [Example 4.11]	very good	very good	
165	CCC(CC)/C(N)=C(\C#N)C(=O)O [Example 4.42, (2Z)-3-Amino-2-cyano-4-ethyl-2-hexene acid]			
164	CCC(CC)/C(N)=C(\C#N)C(=O)NC(C)C [Example 6.5]			
	CCC(CC)/C(N)=C(\C#N)C(=O)OC(C)CCl (stereo not drawn) [Example 4.30]		very good	effect on the harmful plant Digitaria sanguinalis ([3]; 1.0 kg/ha): very good
	C#CCC(CC=C)/C(N)=C(\C#N)C(=O)OC(C)C (stereo not drawn) [Example 5.11]	very good		
	C=CCC(CC=C)/C(N)=C(\C#N)C(=O)OC(C)C [Example 5.9]	very good		
	CCC(C)OC(=O)/C(C#N)=C(\N)C(CC)CC (stereo not drawn) [Example 4.2]			effect on the harmful plant Digitaria sanguinalis ([3]; 0.5 kg/ha): very good; effect on the harmful plant Setaria faberii ([2]; 0.5 kg/ha): very good; post-emergence activity against Pharbitis purpurea ([1]; 0.5 kg/ha): very good
105 to 110	CCC(CC)/C(N)=C(\C#N)C(=O)OC1CCOC1 (stereo not drawn) [Example 4.38]			
125	CCC(CC)/C(N)=C(\C#N)C(=O)OCC1CC1 [Example 4.13]		very good	effect on the harmful plant Digitaria sanguinalis ([3]; 1.0 kg/ha): very good
	CCCC(CC)/C(N)=C(\C#N)C(=O)OC(C)C (stereo not drawn) [Example 5.3]		very good	
	C#CCOC(=O)/C(C#N)=C(\N)C(CC)CC [Example 4.19]			effect on the harmful plant Digitaria sanguinalis ([3]; 0.5 kg/ha): very good; effect on the harmful plant Setaria faberii ([2]; 0.5 kg/ha): very good

Reference: US20050009706A1, “Alpha-cyanoacrylates” (priority 2001, published 2005)
